{"source": "patent US11820832B2", "about": "“Bispecific HER2 and CD3 binding molecules” (MEMORIAL SLOAN KETTERING CANCER CENTER, priority 2014, dated 2023)", "key": {"[1]": {"test_system": "HCC1954 breast cancer xenografts", "test": "Xenograft, subcutaneous tumor plus intravenous effector cells", "assay_type": "in vivo, DKO mice", "settings": "s.c. HCC1954; for tumor volume changes, PD1/PDL1 blockade resistant model: i.v. PBMC 7.5×10^6 once per week for 2 weeks, 100 μg each twice per week for 4 weeks", "source_text": "For in vivo therapy studies, BALB-Rag2-/−IL-2R-γc-KO (“DKO”) mice (derived from colony of Dr. Mamoru Ito, CIEA, Kawasaki, Japan; see, e.g., Koo et al., 2009, Expert Rev Vaccines 8:113-20 and Andrade et al., 2011, Arthritis Rheum 63:2764-73) were used. […] Subcutaneous xenografts were created with 5×10^6 cells suspended in Matrigel (Corning Corp, Tewksbury Mass.) and implanted in the flank of DKO mice. Effector peripheral blood mononuclear cell (PBMC) cells were purified from buffy coats purchased from the New York Blood Center. Prior to every experimental procedure, PBMCs were analyzed for their percentage of CD3, CD4, CD8 and CD56 cells to ensure consistency. […] Tumor size was measured using (1) hand-held TM900 scanner (Pieira, Brussels, BE); (2) Calipers; or (3) bioluminescence. Bioluminescence imaging was conducted using the Xenogen In Vivo Imaging System (IVIS) 200 (Caliper LifeSciences). Briefly, mice were injected intravenously with 0.1 mL solution of D-luciferin (Gold Biotechnology; 30 mg/mL stock in PBS). Images were collected 1 to 2 minutes after injection using the following parameters: a 10- to 60-second exposure time, medium binning, and an 8 f/stop. Bioluminescence image analysis was performed using Living Image 2.6 (Caliper LifeSciences).\nFor in vivo therapy studies, BALB-Rag2-/−IL-2R-γc-KO (DKO) mice (derived from colony of Dr. Mamoru Ito, CIEA, Kawasaki, Japan)(Koo et al., Expert Rev Vaccines 2009; 8:113-20; Andrade et al., Arthritis Rheum 2011; 63:2764-73) were used. […] Effector PBMC cells and ATCs were prepared as described above. Prior to every experimental procedure, PBMCs and ATCs were analyzed by FACS for their percentage of CD3, CD4, CD8 and CD56 cells to ensure consistency. […] Tumor size was measured using 1) hand-held TM900 scanner (Pieira, Brussels, BE), 2) Calipers, or 3) Bioluminescence. […]"}, "[2]": {"target": "CD3 (Homo sapiens, UniProt P07766)", "sequence (P07766 23-126 limits assumed)": "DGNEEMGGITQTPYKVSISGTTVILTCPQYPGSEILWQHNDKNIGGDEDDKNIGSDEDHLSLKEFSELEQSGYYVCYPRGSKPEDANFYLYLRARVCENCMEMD", "test": "Binding affinity analysis by Biacore (Surface Plasmon Resonance)", "settings": "antigen CD3, Biacore", "experimental": "Binding assays were performed by Surface Plasmon Resonance using Biacore T100 similar as described in Okazaki et al., 2004, J Mol Biol; 336(5): 1239-1249."}, "[3]": {"test_system": "SCCHN cell line PCI-30", "test": "Cell proliferation assay (WST-8)", "assay_type": "cell-based, human", "settings": "10 nM kinase inhibitors, 10 μg/mL antibodies", "experimental": "(§1) Cell proliferation was determined using an ELISA plate reader and the WST-8 kit (Dojindo technologies) following the manufacturer's instructions and using the formula: % survival rate=(Sample-Background)/(Negative control-Background). Lapatinib (MSKCC pharmacy) was ground using a mortar and pestle and suspended in DMSO as previously described. To determine statistical significance, the results were analyzed using one-way ANOVA using Prism 6.0.\n(§2) For cell proliferation assays, 5,000 tumor cells were plated using RPMI-1640 supplemented with 10% FBS in a 96 well plate for 36 hours before being treated with lapatinib or the antibodies at the specified concentrations. Cell proliferation was determined using an ELISA plate reader and the WST-8 kit (Dojindo technologies) following the manufacturer's instructions and using the formula: % survival rate=(Sample-Background)/(Negative control-Background). Lapatinib (Memorial Sloan Kettering Cancer Center pharmacy) was ground using a mortar and pestle and suspended in DMSO as previously described (Chen et al., 2012, Molecular cancer therapeutics 11:660-669). To determine statistical significance, the results were analyzed using one-way ANOVA using Prism 6.0.\n(§3) For tumor cell proliferation, 5,000 tumor cells were plated using RPMI-1640 supplemented with 10% fetal bovine serum (“FBS”) in a 96 well plate for 36 hours before being treated with—kinase inhibitors or the antibodies at the specified concentration. Cell proliferation was determined using the cell counting WST-8 kit (Dojindo technologies) following the manufacturer's instructions and using the formula: % survival rate=(Sample-Background)/(Negative control-Background). Lapatinib was ground using a mortar and pestle and suspended in DMSO as previously described (Chen et al., Molecular cancer therapeutics 2012; 11:660-9). To determine statistical significance, the results were analyzed using one-way ANOVA using Prism 6.0."}, "[4]": {"test_system": "HeLa cervical carcinoma cells", "test": "Cell proliferation assay (WST-8)", "assay_type": "cell-based, human", "settings": "10 nM kinase inhibitors, 10 μg/mL antibodies", "experimental": "as §1, §2, §3"}, "[5]": {"test_system": "U2OS osteosarcoma cells", "test": "Cell proliferation assay (WST-8)", "assay_type": "cell-based, human", "settings": "10 nM kinase inhibitors, 10 μg/mL antibodies", "experimental": "as §1, §2, §3"}, "[6]": {"test_system": "naïve T cells with or without NCI-N87 tumor cells", "test": "Cytokine release assay with naive T cells", "assay_type": "cell-based, human", "settings": "16.7 nM antibody, 24 hours", "experimental": "Cytokine release was assayed as previously described (Ahmed et al., Oncolmmunology 2015; 4:e989776), using naïve T cells prepared as described above. T cells (200,000/well) were cultured with or without NCI-N87 tumor cells (10,000/well) for 24 hours before supernatants being harvested for ELISA-based cytokine assay."}, "[7]": {"test_system": "HER2(+) SCCHN cell line PCI-13", "test": "Blocking of HER2-BsAb T-cell cytotoxicity by trastuzumab or huOKT3", "assay_type": "cell-based, human", "settings": "0.1 μg/mL HER2-BsAb with 10 μg/mL blocking antibody", "experimental": "(§4) Cell cytotoxicity was assayed by ^51Cr release as previously described (Xu et al., Cancer immunology research 2015; 3:266-77), and EC50 was calculated using SigmaPlot software. Effector PBMC cells were purified from buffy coats purchased from the New York Blood Center. ATCs were first purified from human PBMC using Pan T cell isolation kit, and then activated and expanded for approximately 14 days with CD3/CD28 Dynabeads (Invitrogen) according to manufacturer's protocol."}, "[8]": {"test_system": "HER2-positive cells", "test": "Blocking of HER2-BsAb induced T cell cytotoxicity", "assay_type": "cell-based, human", "settings": "HER2-positive cells pre-incubated with blocking antibody", "experimental": "(§5) The ^51Cr release assay was performed with effector T cells cultured in vitro in the presence of anti-CD3 and anti-CD28 for about 14 days. […] 5000 target cells/well were mixed with 50,000 effector cells (E:T=10:1) and BsAb antibodies in 96-well polystyrene round-bottom plates (BD Biosciences) to a final volume of 250 μl/well. The plates were incubated at 37° C. for 4 h. […] Percentage of specific release was calculated using the formula: (experimental cpm−background cpm)/(total cpm−background cpm)×100%, where cpm represented counts per minute of ^51Cr released. […] EC50 was calculated using SigmaPlot software."}, "[9]": {"test_system": "naïve T cells", "test": "T cell proliferation assay (WST-8)", "assay_type": "cell-based, human", "settings": "67 nM antibody, absence of tumor targets, 6 days", "experimental": "For T cell proliferation, naïve T cells were purified from human PBMC using Pan T cell isolation kit (Miltenyi Biotec). 2×10^5 purified T cells were mixed with different antibodies in 96-well cell culture plate to a final volume of 250 μl/well. T cells were cultured and maintained in RPMI-1640 supplemented with 10% FBS in 37° C. for 6 days. T cell proliferation was quantitated using the WST-8 kit as described above."}, "[10]": {"test_system": "HeLa cervical cancer cells", "test": "HER2-BsAb redirected T cell cytotoxicity, 51Cr release assay", "assay_type": "cell-based, human", "settings": "pretreatment with lapatinib", "experimental": "as §5, §4"}, "[11]": {"test_system": "trastuzumab-sensitive breast carcinoma cell line SKBR3", "test": "Cell proliferation assay (WST-8)", "assay_type": "cell-based, human", "settings": "lapatinib 10 nM, 72 hours", "experimental": "as §1, §2, §3"}}, "data": [{"molecule": "Pembrolizumab", "values": [{"measurement": "tumor volume changes, PD1/PDL1 blockade resistant model", "setting": "[1]", "result": "no effect"}]}, {"molecule": "huOKT3 IgG1-aGlyco: parental aglycosylated huOKT3 IgG1", "values": [{"measurement": "Kd", "setting": "[2]", "result": 64.6, "unit": "nM"}, {"measurement": "koff", "setting": "[2]", "result": 0.109, "unit": "s⁻¹"}, {"measurement": "kon", "setting": "[2]", "result": "1.68e+06", "unit": "M⁻¹ s⁻¹"}]}, {"molecule": "CCOc1cc2ncc(C#N)c(Nc3ccc(OCc4ccccn4)c(Cl)c3)c2cc1NC(=O)/C=C/CN(C)C", "note": "[neratinib]", "values": [{"measurement": "sensitivity of cells in proliferation assay", "setting": "[3]", "result": "resistant"}, {"measurement": "sensitivity of cells in proliferation assay", "setting": "[4]", "result": "pan-resistant"}, {"measurement": "sensitivity of cells in proliferation assay", "setting": "[5]", "result": "minimal sensitivity"}]}, {"molecule": "huOKT3: humanized OKT3 anti-CD3 IgG1, same variable sequences as in huOKT3 scFv", "values": [{"measurement": "cytokine release in the absence of tumor targets", "setting": "[6]", "result": "substantially more cytokines"}, {"measurement": "blocking of HER2-BsAb mediated T-cell cytotoxicity", "setting": "[7]", "result": "prevented"}, {"measurement": "tumor growth", "setting": "[1]; i.v. PBMC once a week for 3 weeks, i.v. antibody twice a week for 3 weeks", "result": "only modest effects"}, {"measurement": "blocking of the ability of HER2-BsAb to induce T cell cytotoxicity", "setting": "[8]", "result": "blocked"}, {"measurement": "T cell proliferation", "setting": "[9]", "result": "robust T cell proliferation"}]}, {"molecule": "CS(=O)(=O)CCNCc1ccc(-c2ccc3ncnc(Nc4ccc(OCc5cccc(F)c5)c(Cl)c4)c3c2)o1", "note": "[lapatinib]", "values": [{"measurement": "effect of pretreatment on HER2-BsAb mediated cytotoxicity", "setting": "[10]", "result": "increased sensitivity"}, {"measurement": "inhibition of cell proliferation (positive control)", "setting": "[11]", "result": "strongest inhibition of cell proliferation"}, {"measurement": "sensitivity of cells in proliferation assay", "setting": "[3]", "result": "resistant"}, {"measurement": "sensitivity of cells in proliferation assay", "setting": "[4]", "result": "pan-resistant"}, {"measurement": "sensitivity of cells in proliferation assay", "setting": "[5]", "result": "minimal sensitivity"}]}, {"molecule": "huOKT3 Fab: monovalent Fab prepared from huOKT3 IgG1", "values": [{"measurement": "cytokine release in the absence of tumor targets", "setting": "[6]", "result": "background cytokine release"}, {"measurement": "T cell proliferation", "setting": "[9]", "result": "negligible effects"}]}, {"molecule": "Atezolizumab", "values": [{"measurement": "tumor volume changes, PD1/PDL1 blockade resistant model", "setting": "[1]", "result": "no effect"}]}, {"molecule": "C#Cc1cccc(Nc2ncnc3cc(OCCOC)c(OCCOC)cc23)c1", "note": "[erlotinib]", "values": [{"measurement": "sensitivity of cells in proliferation assay", "setting": "[3]", "result": "resistant"}, {"measurement": "sensitivity of cells in proliferation assay", "setting": "[4]", "result": "pan-resistant"}, {"measurement": "sensitivity of cells in proliferation assay", "setting": "[5]", "result": "minimal sensitivity"}]}]}
